According to PubChem BioAssay (NCI):
Where “and” joins values, the source holds several entries; their conditions need not be identical. Equal values may be shown once.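 All cell lines were grown in 96-well plates and treated with compound for 48 hours. GI50 marks 50% less growth. Definition used: TGI = concentration required for complete inhibition of growth.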

Assays:
Experiment in all cases: NCI tumour cell line growth inhibition, 48 h
KM12 colon = tested on: KM12 colon
BT-549 breast = tested on: BT-549 breast
SF-295 CNS = tested on: SF-295 CNS
T-47D breast = tested on: T-47D breast
DU-145 prostate = tested on: DU-145 prostate
PC-3 prostate = tested on: PC-3 prostate
NCI-H226 lung = tested on: NCI-H226 lung
COLO 205 colon = tested on: COLO 205 colon
HOP-62 NSCLC = tested on: HOP-62 NSCLC
HT29 colon = tested on: HT29 colon

| Compound | TGI (KM12 colon) | TGI (BT-549 breast) | TGI (SF-295 CNS) | TGI (T-47D breast) | TGI (DU-145 prostate) | TGI (PC-3 prostate) | TGI (NCI-H226 lung) | TGI (COLO 205 colon) | TGI (HOP-62 NSCLC) | TGI (HT29 colon) | GI50 (KM12 colon) [µM] | GI50 (BT-549 breast) [µM] | GI50 (SF-295 CNS) [µM] | GI50 (T-47D breast) [µM] | GI50 (DU-145 prostate) [µM] | GI50 (PC-3 prostate) [µM] | GI50 (NCI-H226 lung) [µM] | GI50 (COLO 205 colon) [µM] | GI50 (HOP-62 NSCLC) [µM] | GI50 (HT29 colon) [µM] |
| --- | --- | --- | --- | --- | --- | --- | --- | --- | --- | --- | --- | --- | --- | --- | --- | --- | --- | --- | --- | --- |
| CCCCCC/C=C\CCCCCCCCCc1c(O)c(OC)cc(O)c1CN(C)C | 11.7 µM | 21 µM | 16.2 µM | 4.2 µM | 36 µM | 14.5 µM | 36.7 µM | 4.43 µM | 28.9 µM | 16.1 µM |  |  |  |  |  |  |  |  |  |  |
| Cc1[nH]ccc2cc3nc4ccccc4c3cc12 | 11.8 µM | 13.3 µM | 6.79 µM | 18.9 µM | 5.83 µM | 11.7 µM | 12.6 µM | 7.15 µM | 12.8 µM | 3.55 µM | 2.45 | 2.74 | 1.96 | 3.62 | 2.18 | 2.46 | 2.94 | 2.35 | 2.79 | 1.16 |
| COc1ccc2nc(C3=CN(C4OC(CO)C(O)C(O)C4O)C4C=CC=CC34)sc2c1 (stereo not drawn) | 75.7 µM | > 100 µM | 82.3 µM | > 100 µM | > 100 µM | > 100 µM | 79.3 µM | > 100 µM | 56.9 µM | > 100 µM | 24.1 | 33.9 | 26.6 | 45 | 38.8 | 38.9 | 21.4 | 27.2 | 22.6 | 59.9 |
| O=C1c2c(O)cccc2C(C(=O)CCCC(=O)C2c3cccc(O)c3C(=O)c3c(O)cccc32)c2cccc(O)c21 | 0.868 µM | 4.74 µM | 2.22 µM | 0.941 µM | 2.02 µM | 0.467 µM | 1.47 µM | 1.32 µM | 2.09 µM | 2.48 µM |  |  |  |  |  |  |  |  |  |  |
| CCCCCCCCCCC(CN(CC)CC)C(O)c1ccccc1 (stereo not drawn) | 3.39 µM | 4.21 µM | 3.48 µM | 4.31 µM | 3.49 µM | 3.13 µM | 4.66 µM | 3.7 µM |  | 3.81 µM | 1.83 | 2.02 | 1.84 | 1.84 | 1.89 | 1.62 | 2.03 | 1.81 |  | 1.76 |
| COc1ccc(Cn2cc3c(c2-c2ccccc2)CCc2cncnc2-3)cc1 | 13.5 µM | 14.7 µM | 17.8 µM | 27 µM | 33.7 µM | 31.1 µM | 26.7 µM | 17.2 µM | 31.3 µM | 12.9 µM | 3.57 | 4.1 | 4.02 | 3.47 | 14.2 | 8.71 | 11.5 | 4.44 | 12 | 3.9 |
| O=C(Nn1c2c(sc1=NC1CC1)C(=O)c1ccccc1C2=O)c1cc2ccc1CCc1ccc(cc1)CC2 | 13.7 µM | 2.91 µM | 12.7 µM | 14.4 µM | 3.43 µM | 10.7 µM | 5.83 µM | 12.7 µM | 17.2 µM | 28.7 µM | 3.12 | 1.5 | 3.55 | 2.49 | 1.85 | 1.62 | 1.81 | 3.36 | 4.28 | 3.32 |
| CCN1CCN(c2cc(C)nc(NCc3cc(Nc4ccnc5cc(Cl)ccc45)ccc3F)n2)CC1 | > 100 µM | 21.8 µM | 5.96 µM | 4.31 µM | 42.3 µM | 69.5 µM | 48.9 µM | 2.81 µM | 24.1 µM | 5.32 µM | 5.3 | 5.36 | 2.05 | 1.42 | 2.74 | 5.02 | 15.4 | 0.897 | 3.59 | 0.957 |
| O=C(Nc1ccc([N+](=O)[O-])cc1)c1cc2ccccc2cc1O | 2.68 µM | 2.43 µM | 3.17 µM | 8.89 µM | > 100 µM | 7.88 µM | 5.37 µM | 6.41 µM | 8.69 µM | > 29.8 µM | 0.698 | 0.444 | 1.15 | 0.39 | 0.484 | 0.937 | 0.503 | 2.47 | 0.939 | 3.52 |
| CN1CCN(c2ccc([N+](=O)[O-])c3no[n+]([O-])c23)CC1 | 1.6 µM and 0.291 µM | 4.64 µM and 2.12 µM | 1.82 µM and 1.59 µM | 1.16 µM and 2.65 µM | 1.99 µM and 1.28 µM | 2.21 µM and 1.94 µM | 3.39 µM and 2.16 µM | 2.33 µM and 2.41 µM | 1.26 µM and 1.39 µM | 3.43 µM and 0.512 µM | 0.144 | 0.841 | 0.292 | 0.6 | 0.302 | 0.412 | 0.697 | 0.942 | 0.318 | 0.135 |
| C=C(C)C(=O)N1c2ccc(OC)cc2CC1C(=O)OCC (stereo not drawn) | > 100 µM | > 100 µM | > 100 µM | > 100 µM | > 100 µM | > 100 µM | > 100 µM | > 100 µM | > 100 µM | > 100 µM |  |  |  |  |  |  |  |  |  |  |
| O=C1C(Cl)=C(Nc2ccc3c(c2NC2=C(Cl)C(=O)c4ccccc4C2=O)C(=O)c2ccccc2C3=O)C(=O)c2ccccc21 | 15 µM | 2.83 µM | 3.2 µM | 5.99 µM | 2.97 µM | 12.5 µM | 8.9 µM | 3.72 µM | 5.68 µM | 8.54 µM | 2.98 | 1.36 | 1.38 | 2.19 | 1.57 | 1.92 | 2.7 | 1.69 | 2.25 | 3.12 |
| CN(C)CCN1C(=O)c2cccc3c(-c4ccc5ncn(C6CCCCC6)c5c4)ccc(c23)C1=O | 13.2 µM | 16.2 µM | 5.93 µM | 23.4 µM | 13.5 µM | 5.75 µM | 7.78 µM | 4.14 µM | 6.75 µM | 8.11 µM | 2.24 | 3.95 | 1.54 | 3.16 | 3.14 | 1.63 | 2.32 | 1.21 | 1.69 | 0.938 |
| CC(C)c1ccc(O)c(O)c(=O)c1 (tested in a mixture with another compound) | > 82.1 µM | 98.9 µM | > 100 µM | > 68.6 µM | 33.7 µM | 15.6 µM | > 23.4 µM | 17.1 µM | > 100 µM | > 100 µM |  |  |  |  |  |  |  |  |  |  |
| COC(=O)C1=C2CO[C@@H]3C[C@H]4C(C)(C)CCC[C@]4(C)C(=CC1)[C@]23C | 74.1 µM | > 100 µM | 37.6 µM | > 100 µM | > 100 µM | 0.692 µM | > 100 µM | 71 µM | > 100 µM | > 100 µM | 21.4 | 48.9 | 14.9 | 41.5 | 44 | 0.229 | 56.5 | 28.2 | 45.1 | 48.4 |
| Cc1cccc2cc3ccc4ccccc4c3cc12 | > 100 µM | > 100 µM | > 100 µM | > 100 µM | > 100 µM | > 100 µM | > 100 µM | 39 µM | > 100 µM | 97.8 µM |  |  |  |  |  |  |  |  |  |  |
| CCOC(=O)c1cn2ncnc(Oc3ccc(NC(=O)NCCN(CC)CC)c(Cl)c3)c2c1C | 49.5 µM | 19.5 µM | 4.71 µM | 8.72 µM | 55.1 µM | 15 µM | > 100 µM | 3.78 µM | 29.5 µM | 5.45 µM | 10.8 | 4.96 | 2.14 | 2.77 | 7.1 | 3.22 | 17.9 | 2.01 | 12 | 2.26 |
| O=C(O)CCc1nc(-c2ccccc2)c(-c2ccccc2)o1 | > 100 µM | > 100 µM | > 100 µM | > 100 µM | > 100 µM | > 100 µM | > 100 µM | > 100 µM | > 100 µM | > 100 µM |  |  |  |  |  |  |  |  |  |  |
| O=C1/C(=C/c2ccc(C(F)(F)F)cc2)COc2ccc(O)cc21 | 3.41 µM | 15.5 µM | 24.9 µM | 4.76 µM | 12 µM | 4.17 µM | 8.21 µM | 5.83 µM | 25.4 µM | 4.32 µM | 1.75 | 4.29 | 12.1 | 2.03 | 3.23 | 1.89 | 2.53 | 2.47 | 12.8 | 2.03 |
| NCCCn1c2c(c3ccc([N+](=O)[O-])cc3c1=O)C(=O)c1cc(Cl)ccc1-2 | 0.174 µM | 1.4 µM | 1.37 µM | 1.2 µM | 0.115 µM | 0.381 µM | 0.141 µM | 0.313 µM | 0.123 µM | 0.225 µM | < 0.0283 | 0.0635 | < 0.01 | < 0.01 | < 0.01 | < 0.0163 | < 0.01 | < 0.01 | < 0.01 | < 0.01 |
